This is an account of results in patent US8372971B2, “Heterocyclic compounds and methods of use” (TargeGen, Inc., priority 2004, dated 2013).

The target of assay [1] is T1, raf1 with inactive MEK1 (Raf1-MEK1) (Homo sapiens, UniProt P04049).
T1 construct: purchased Upstate, Lake Placid, N.Y
As to the kind of experiment: Raf1-MEK1 assay (KinaseGlo). The settings on record: for IC50: Raf-Mek, 3 uM ATP, read-out: RAF-MEK assay (biochemical assay). In kind it is biochemical.

In assay [2] the test system is p-MEK and p-ERK levels in HUVECs. As to the kind of experiment: Western Blot, inhibition of MAPK pathway in cellular assay (Example 27). Format: cell-based, human. The note with it: for Western Blot: at 5 uM, 50 ng/ml VEGF or FGF. On the procedure:
(§1) Western Blot: Early passage primary human umbilical vein endothelial cells (HUVECs) were maintained in EGM-2 containing SingleQuots (Cambrex, East Rutherford, N.J.), 10% FBS, 10 mM HEPES, and 50 μg/ml gentamicin. Prior to treatment of the cells with inhibitor, the HUVECs were starved for 18 h by replacing serum-containing complete media with scrum-free and SingleQuot-free media. The starved cells were pre-treated with inhibitors for 60 min at various concentrations (0-20 μM). Next the HUVECs were treated with 50 ng/ml VEGF or FGF (Peprotech, Rocky Hill, N.J.) for 6 min and the cells were immediately washed with ice-cold PBS. Cells were lysed with ice-cold RIPA buffer containing 100 mM Tris pH 7.5, 150 mM NaCl, 1 mM EDTA, 1% deoxycholate, 1% Triton X-100, 0.1% SDS, 2 mM PMSF, one Complete-Mini protease inhibitor tablet (Roche, Indianapolis, Ind.; 1 tablet/7 ml of lysis buffer) and the phophatase inhibitors NaF (500 mM) and orthovanadate (1 mM). The cells were scraped and lysates transferred and centrifuged at 15,000 g for 10 min. Supernatants were transferred to new tubes and protein concentration was quantitated using the BCA protein reagent (Pierce, Rockford, Ill.). Cell lysates containing 20 μg of total protein were separated by 10% SDS-PAGE, transferred to nitrocellulose, and blocked in 5% milk in TBST. Anti phospho-ERK Thr 202/Tyr 204 (Cell Signaling, Beverly, Mass.), anti-phospho-MEK Ser217/221 (Cell Signaling), and c-Raf (BD Biosciences Pharmingen, San Diego, Calif.) used as primary antibodies were detected with horseradish peroxidase-conjugated goat anti-mouse or rabbit secondary antibodies and bands were visualized using the SuperSignal West Pico chemiluminescence reagent system (Pierce) and Kodak X-ray film (Rochester, N.Y.).

Assay [3] has the same test system. As to the kind of experiment: Western Blot, inhibition of MAPK pathway in cellular assay (Example 105). In kind it is cell-based, human. The settings on record: VEGF or FGF. On the procedure:
as §1, with “Some compounds described by the general structure (B) were tested for inhibition of MAPK pathway in cellular assay. Western” for “Western”, “serum-free” for “scrum-free”, “main.” for “min.”

Where a name gives a salt, the structure may show the parent alone.

T1 sequence (P04049 306-648 limits assumed): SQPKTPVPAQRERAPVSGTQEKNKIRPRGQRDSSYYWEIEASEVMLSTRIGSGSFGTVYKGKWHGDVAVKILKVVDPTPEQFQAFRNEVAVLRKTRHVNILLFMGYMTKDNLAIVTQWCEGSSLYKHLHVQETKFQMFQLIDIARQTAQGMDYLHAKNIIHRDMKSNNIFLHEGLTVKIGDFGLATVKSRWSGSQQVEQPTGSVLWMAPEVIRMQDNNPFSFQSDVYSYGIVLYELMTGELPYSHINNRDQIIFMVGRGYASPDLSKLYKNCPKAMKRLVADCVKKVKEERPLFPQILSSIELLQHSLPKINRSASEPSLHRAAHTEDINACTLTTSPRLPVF

On to `CNC(=O)c1cc(Oc2ccc3nc(NS(=O)(=O)c4cc(Cl)ccc4OC)nnc3c2)ccn1` [4-[3-chloro-6-methoxy-benzenesulfonylamino)-benzo[1,2,4]triazin-7-yloxy]-pyridine-2-carboxylic acid methyl amide trifluoroacetate salt], for which the IC50 in assay [1] is more than 50000 nM. Further, the “Western Blot” value in assay [2] is “not active at 5 uM”. In the case of `CNC(=O)c1cc(Oc2ccc3nc(NS(=O)(=O)c4cccc(C(F)(F)F)c4)nnc3c2)ccn1` [4-[3-(3-trifluoromethyl-benzenesulfonylamino)-benzo[1,2,4]triazin-7-yloxy]-pyridine-2-carboxylic acid methyl amide trifluoroacetate salt], the “RAF-MEK assay (biochemical assay), result in words” value (shortened to “RAF-MEK assay (biochemical assay)”) in assay [1] is listed as “flat”. In assay [2], the “Western Blot” value is recorded as “not active at 5 uM”. For `CNC(=O)c1cc(Oc2ccc3nc(NC(=O)c4cccc(C(F)(F)F)c4Cl)nnc3c2)ccn1` [4-[3-(2-chloro-3-trifluoromethyl-benzoylamino)-benzo[1,2,4]triazin-7-yloxy]-pyridine-2-carboxylic acid methyl amide trifluoroacetate salt], the “RAF-MEK assay (biochemical assay)” value in assay [1] is recorded as “flat”. The “Western Blot” value in assay [2] was “not active at 5 uM”. On the same counts, the results for `CNC(=O)c1cc(Oc2ccc3nc(NC(=O)c4ccc(Cl)cc4Cl)nnc3c2)ccn1` [4-[2,4-dichloro-benzoylamino)-benzo[1,2,4]triazin-7-yloxy]-pyridine-2-carboxylic acid methyl amide trifluoroacetate salt] are “flat” and “not active at 5 uM”. For `N#CC(=C(/N)Sc1ccccc1N)/C(C#N)=C(\N)Sc1ccccc1N` [Example U0126, reference compound], the IC50 fell in the range of 200 to 300 nM in assay [2] (Homo sapiens, HUVEC, VEGF or FGF, read-out: reduction in p-Erk levels, IC50) and 200 to 300 nM in assay [3] (Homo sapiens, HUVEC, read-out: reduction in p-Erk levels, IC50). The p-MEK levels entry in assay [2] (VEGF or FGF) and in assay [3] was “unaffected” each time. As to `CNC(=O)c1cc(Oc2ccc3nc(NC(=O)c4ccc(Cl)c(C(F)(F)F)c4)nnc3c2)ccn1` [4-[3-(4-chloro-3-trifluoromethyl-benzoylamino)-benzo[1,2,4]triazin-7-yloxy]pyridine-2-carboxylic acid meth amide trifluoroacetate salt], the IC50 in assay [1] lay within 10000 to 50000 nM. Further, in assay [2], the “Western Blot” value is listed as “not active at 5 uM”. On to `CNC(=O)c1cc(Oc2ccc3nc(NC(=O)c4cccc(Cl)c4)nnc3c2)ccn1` [trifluoroacetate salt], for which, in assay [1], the “RAF-MEK assay (biochemical assay)” value is “flat”. Moreover, the “Western Blot” value in assay [2] was “not active at 5 uM”. As for `CN(C)C(=O)c1cc(Oc2ccc3nc(N(C)C(=O)c4ccc(OC(F)(F)F)cc4)nnc3c2)ccn1` [4-{3-[Methyl-(4-trifluoromethoxy-benzoyl)-amino]-benzo[1,2,4]triazin-7-yloxy}-pyridine-2-carboxylic acid dimethyl amide], the “Western Blot” value in assay [2] is “partially active at 5 uM”. On the same count and under the same terms, to `CNC(=O)c1cc(Oc2ccc3nc(NS(=O)(=O)c4cc(C(F)(F)F)ccc4Cl)nnc3c2)ccn1` [4-[2-chloro-5-(trifluoromethyl-benzenesulfonylamino)-benzo[1,2,4]triazin-7-yloxy]-pyridine-2-carboxylic acid methyl amide trifluoroacetate salt] belongs “not active at 5 uM”. On the same count and under the same terms, then `O=C(Nc1ccc(OC(F)(F)F)cc1)Nc1nnc2cc(Oc3ccnc(C(=O)NCCN4CCOCC4)c3)ccc2n1` [4-{3-[3-(4-Trifluoromethoxy-phenyl)-ureido]-benzo[1,2,4]triazin-7-yloxy}-pyridine-2-carboxylic acid (2-morpholin-4-yl-ethyl)-amide], with “not active at 5 uM”.

In the case of `CNC(=O)c1cc(Oc2ccc3nc(NC(=O)c4cc(C(F)(F)F)ccc4Cl)nnc3c2)ccn1` [4-[2-chloro-3-trifluoromethyl-benzoylamino)-benzo[1,2,4]triazin-7-yloxy]-pyridine-2-carboxylic acid methyl amide trifluoroacetate salt], in assay [2], the “Western Blot” value is given as “not active at 5 uM”.
